For assay [1], the system named is HCMV. Kind of assay: Generation of drug resistant virus. The settings on record: 5 passages, UL97 sequencing. It counts as cell-based, Human Cytomegalovirus. The protocol:
Screening of drug resistant virus was performed as reported. Two million cells were plated on a 6-well plate and infected with HCMV (MOI 0.05). […] The cells were maintained in DMEM with 4% FBS until plaques were observed. The supernatants from these plates were used to infect fresh HFFs in a 6-well plate and each time drug concentration was increased by two fold. […] DNA extracted from supernatants collected at the last stage was used for UL97 sequencing.

The test system of the next assay is MCMV. Nature of the assay: MCMV plaque reduction assay in MEFs. It counts as cell-based, mouse CMV. The settings on record: GCV 5 μM, 0.5 and 2 million cells/plate. The protocol:
The pp28-luciferase HCMV Towne and a GCV-resistant pp28-luciferase were used. The recombinant viruses express luciferase under the control of the late CMV gene promoter, pp28. Luciferase expression is activated 48–72 hours post infection (hpi). The recombinant viruses provide a highly-sensitive reporter system which correlates with plaque reduction assay. The Towne HCMV strain (ATCC VR-977) was used for plaque reduction, quantitative reverse transcriptase PCR (qRT-PCR), and immunoprecipitation assays. Human herpes virus strains were: luciferase HSV1- KOS/Dlux/oriS [52] and clinical isolates of HSV2. The clinical isolates were provided by the clinical microbiology laboratory with no identifiers that can link to a specific subject. Murid Herpesvirus (MCMV: ATCC VR-1399) was used for infection of mouse embryonic fibroblasts (MEFs) and mice.
Human Foreskin Fibroblasts (HFFs) passage 12–16 (ATCC, CRL-2088) and mouse embryonic fibroblasts (MEFs) passage 9–14 (ATCC, CRL-1658) were grown in Dulbecco's Modified Eagle Medium (DMEM) containing 10% fetal bovine serum (FBS) (Gibco, Carlsbad, CA) in a 5% CO2 incubator at 37°C. Infection with HCMV or HSV was performed in HFFs, and infection with mouse CMV was performed in MEFs. For HCMV, cells were seeded in either a 96-well plate or 100 mm culture plates (Corning Costar, Sigma Aldrich) at 0.5 or 2 million cells /plate. Following 90 minute adsorption, media was removed and cells were washed with PBS. Media containing 4% FBS and compounds were added to each well. Infected treated HFFs were collected at 72 hpi and lysates were assayed for luciferase activity using a luciferase assay kit (Promega, Madison, WI) on GloMax-Multi+ Detection System (Promega). In second cycle assays, supernatants were collected from all conditions of the first cycle at 96 hpi and used for infection of fresh HFFs in 96-well plates. Luciferase activity was measured 72 h following second cycle infection. […] After incubation at 37°C for 10 days (for HCMV), 3 days for MCMV or 2 days (for HSV), the overlay was removed and plaques were counted after crystal violet staining.

For another assay, the system named is HCMV Towne. Kind of assay: HCMV plaque reduction assay in HFFs. It counts as cell-based, Human Cytomegalovirus. The note with it: GCV 5 μM, 0.5 and 2 million cells/plate. As to the method:
Human Foreskin Fibroblasts (HFFs) passage 12–16 (ATCC, CRL-2088) and mouse embryonic fibroblasts (MEFs) passage 9–14 (ATCC, CRL-1658) were grown in Dulbecco's Modified Eagle Medium (DMEM) containing 10% fetal bovine serum (FBS) (Gibco, Carlsbad, CA) in a 5% CO2 incubator at 37°C. Infection with HCMV or HSV was performed in HFFs, and infection with mouse CMV was performed in MEFs. For HCMV, cells were seeded in either a 96-well plate or 100 mm culture plates (Corning Costar, Sigma Aldrich) at 0.5 or 2 million cells /plate. Following 90 minute adsorption, media was removed and cells were washed with PBS. Media containing 4% FBS and compounds were added to each well. Infected treated HFFs were collected at 72 hpi and lysates were assayed for luciferase activity using a luciferase assay kit (Promega, Madison, WI) on GloMax-Multi+ Detection System (Promega). In second cycle assays, supernatants were collected from all conditions of the first cycle at 96 hpi and used for infection of fresh HFFs in 96-well plates. Luciferase activity was measured 72 h following second cycle infection. For HSV1-KOS/Dlux/oriS, a luciferase assay was performed at 24 hpi. Plaque assays were performed with clinical isolates of HSV2 and HCMV Towne (ATCC VR-977). HFFs were seeded at […] in 12-well plates and infected 24 h later with HSV2 at 200 PFU/well. For HCMV or MCMV, HFFs or MEFs were seeded at 0.5 or 2 million cells /plate in a 12-well plate and infected 24 hours later at 100 PFU/well. Following virus adsorption (60 min and 90 min for HSV and HCMV, respectively), virus was aspirated, and DMEM containing 4% fetal bovine serum (FBS) with (for HSV) or without (for HCMV/MCMV) 0.5% carboxymethyl-cellulose, were added with the compounds at indicated concentrations into triplicate wells. After incubation at 37°C for 10 days (for HCMV), 3 days for MCMV or 2 days (for HSV), the overlay was removed and plaques were counted after crystal violet staining.
In general terms: Plaque reduction counts the foci of infection that form in a cell layer.

Another assay relates to MDM2-IE2. Nature of the assay: Co-immunoprecipitation MDM2-IE2 in transfected HEK293 cells. The settings on record: IE1/2 transfection, emetine 75 nM or GCV 5 μM for 4 h. It counts as cell-based. As to the method: HEK-293 cells seeded into 10 cm petri dishes were transfected with HCMV plasmid encoding IE1 and IE2 (pRL45), using Lipofectamine 2000 in serum free medium. After 6 h, 10% FBS containing media was added along with 10 μM of MG132. […] Cells were then harvested to prepare lysates for IP.
Non-infected, infected or emetine-treated HFFs were treated with MG132 (10 μM) for 12h. Cells were harvested after 24 hpi and lysed with IP buffer containing 150 mM NaCl, 50mM Tris pH 7.5, 2 mM EDTA, 0.5% TritonX-100 and 0.5% NP-40-40. 1 mg of lysate was precleared with bead slurry for 30 min. The precleared lysates were incubated with anti-MDM2 (2 μg) antibody overnight. The antibody complexes were isolated using protein A/G beads (Santa Cruz), washed three times with 50% IP buffer. The immunoprecipitate-protein A/G beads were boiled in SDS sample buffer, and the supernatant was analyzed on SDS-PAGE gels after immunoblotting as described previously. 1% of the cell lysate used for IP was loaded on gels as ‘Input’. Confirmatory reverse IPs were performed as described in each experiment. Isotype control antibodies included: rabbit IgG polyclonal, mouse IgG2a kappa and mouse IgG2b kappa monoclonal (Abcam). Mouse monoclonal RPS19 antibody (Abcam) served as an additional negative control for the IPs. Densitometry analysis was performed to determine relative ratio of immunoprecipitated protein to its input level.

The test system of assay [2] is HCMV. Nature of the assay: Virus entry, pp65 immunofluorescence assay. It counts as cell-based, Human Cytomegalovirus. The note with it: emetine 75 nM, GCV 10 μM, CpG 2006 10 μM, added 24 h prior to infection.

Molecules are shown by their SMILES.

As for `Nc1nc(O)c2ncn(COC(CO)CO)c2n1` [GCV, Ganciclovir], in the assay with HCMV [1], the “selection of resistant virus with increasing drug concentration” value is on record as “selected for a C607Y mutation in UL97”. For the same compound, in the assay with MCMV, the “MCMV inhibition and cell density” value is “inhibited HCMV and MCMV irrespective of cell density”. The “HCMV inhibition and cell density” value in the assay on HCMV Towne was “inhibited HCMV and MCMV irrespective of cell density”. Also, the “interaction between MDM2 and IE2” value in the assay on MDM2-IE2 is recorded as “had no effect on this interaction”. The “inhibition of viral entry” value in the assay on HCMV [2] was “neither emetine nor GCV inhibited viral entry”.

The values above are taken from publication PMC4919066 (PLoS Pathogens, 2016).
